Results taken from PubChem BioAssay AID256 (DTP/NCI, 2004).
Toxic doses and inconclusive results are not listed. The calls were made as follows: active = survival T/C of 150% or more; inactive = T/C below 125% in these data.

System: CD2F1 mice, L1210 leukemia ip, survival T/C
Assay: NCI In Vivo Anticancer Drug Screen. Data for tumor model L1210 Leukemia (intraperitoneal) in CD2F1 (CDF1) mice
Conditions: endpoint: mean survival time, vehicle: saline, higher = longer survival
Summary of the method: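 Mice carrying a transplanted tumor received test compound or vehicle alone. The value is the measurement in the treated group divided by that in the vehicle-treated control group.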

Measured: T/C

CC(=O)[C@]1(O)Cc2c(O)c3c(c(O)c2[C@@H](OC2CC(N)C(O)C(C)O2)C1)C(=O)c1c(O)cccc1C3=O (stereo not given in full)
inactive: dose: 0.05 mg/kg/injection, schedule: Q01DX009 (ip) 118 % of control | dose: 0.08 mg/kg/injection, schedule: Q01DX009 (ip) 120 % of control | dose: 0.08 mg/kg/injection, schedule: Q04DX003 (ip) 107 % of control | dose: 0.14 mg/kg/injection, schedule: Q04DX003 (ip) 109 % of control | dose: 0.23 mg/kg/injection, schedule: Q04DX003 (ip) 123 % of control | dose: 0.39 mg/kg/injection, schedule: Q01DX009 (ip) 113 % of control | dose: 0.65 mg/kg/injection, schedule: Q01DX009 (ip) 88 % of control

Cc1ccc(S(=O)(=O)c2ccccc2)cc1
inactive: dose: 100.0 mg/kg/injection, schedule: Q01DX009 (ip) 88 % of control | dose: 200.0 mg/kg/injection, schedule: Q01DX009 (ip) 87 % of control | dose: 400.0 mg/kg/injection, schedule: Q01DX009 (ip) 92 % of control
